Reference: patent publication US7598417B2, “Substituted fluoroethyl ureas as alpha 2 adrenergic agents” (Allergan, Inc., priority 2007, dated 2009)
Read-outs that look alike come from different tables or passages of the source.

Tests used:
Format in all cases: cell-based
alpha2C receptor = target: T1, alpha2C receptor (Homo sapiens, UniProt P18825); test: Receptor Selection and Amplification Technology (RSAT) assay, alpha2C; conditions: for Alpha 2C IA (intrinsic activity): ratio of maximal effect of the drug to maximal effect of standard full agonist brimonidine (UK14304)
T1 construct: expressed in transfected cells; host or cells: NIH-3T3
T1 sequence (P18825 1-462): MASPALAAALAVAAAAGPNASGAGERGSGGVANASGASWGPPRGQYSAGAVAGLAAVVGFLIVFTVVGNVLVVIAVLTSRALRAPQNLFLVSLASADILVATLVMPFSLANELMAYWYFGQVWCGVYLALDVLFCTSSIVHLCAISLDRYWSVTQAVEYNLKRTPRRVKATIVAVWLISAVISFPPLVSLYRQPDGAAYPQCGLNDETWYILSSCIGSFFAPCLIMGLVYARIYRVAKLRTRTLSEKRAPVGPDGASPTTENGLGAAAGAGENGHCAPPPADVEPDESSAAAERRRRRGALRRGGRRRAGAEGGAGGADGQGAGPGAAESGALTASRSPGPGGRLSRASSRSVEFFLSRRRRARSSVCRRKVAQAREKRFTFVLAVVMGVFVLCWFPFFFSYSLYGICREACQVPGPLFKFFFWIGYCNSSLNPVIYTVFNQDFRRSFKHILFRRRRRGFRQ
Method: (§1) Receptor Selection and Amplification Technology (RSAT) Assay
(§2) The RSAT assay measures a receptor-mediated loss of contact inhibition that results in selective proliferation of receptor-containing cells in a mixed population of confluent cells. The increase in cell number is assessed with an appropriate transfected marker gene such as β-galactosidase, the activity of which can be easily measured in a 96-well format. Receptors that activate the G protein, Gq, elicit this response. Alpha2 receptors, which normally couple to Gi, activate the RSAT response when coexpressed with a hybrid Gq protein that has a Gi receptor recognition domain, called Gq/i5.
(§3) NIH-3T3 cells are plated at a density of 2×10^6 cells in 15 cm dishes and maintained in Dulbecco's modified Eagle's medium supplemented with 10% calf serum. One day later, cells are cotransfected by calcium phosphate precipitation with mammalian expression plasmids encoding p-SV-β-galactosidase (5-10 μg), receptor (1-2 μg) and G protein (1-2 μg). 40 μg salmon sperm DNA may also be included in the transfection mixture. Fresh media is added on the following day and 1-2 days later, cells are harvested and frozen in 50 assay aliquots. Cells are thawed and 100 μl added to 100 μl aliquots of various concentrations of drugs in triplicate in 96-well dishes. Incubations continue 72-96 hr at 37° C. After washing with phosphate-buffered saline, β-galactosidase enzyme activity is determined by adding 200 μl of the chromogenic substrate (consisting of 3.5 mM o-nitrophenyl-β-D-galactopyranoside and 0.5% nonidet P-40 in phosphate buffered saline), incubating overnight at 30° C. and measuring optical density at 420 nm. The absorbance is a measure of enzyme activity, which depends on cell number and reflects a receptor-mediated cell proliferation. The efficacy or intrinsic activity is calculated as a ratio of the maximal effect of the drug to the maximal effect of a standard full agonist for each receptor subtype. Brimonidine, also called UK14304, the chemical structure of which is shown below, is used as the standard agonist for the alpha2A, alpha2B and alpha2C receptors. The EC50 is the concentration at which the drug effect is half of its maximal effect.
(§4) EC50 values are nanomolar. NA stands for “not active” at concentrations less than 10 micromolar. IA stands for “intrinsic activity.”

alpha2B receptor = target: T2, alpha2B receptor (Homo sapiens, UniProt P18089); test: Receptor Selection and Amplification Technology (RSAT) assay, alpha2B; conditions: for Alpha 2B IA (intrinsic activity): ratio of maximal effect of the drug to maximal effect of standard full agonist brimonidine (UK14304)
T2 construct: expressed in transfected cells; host or cells: NIH-3T3
T2 sequence (P18089 1-450): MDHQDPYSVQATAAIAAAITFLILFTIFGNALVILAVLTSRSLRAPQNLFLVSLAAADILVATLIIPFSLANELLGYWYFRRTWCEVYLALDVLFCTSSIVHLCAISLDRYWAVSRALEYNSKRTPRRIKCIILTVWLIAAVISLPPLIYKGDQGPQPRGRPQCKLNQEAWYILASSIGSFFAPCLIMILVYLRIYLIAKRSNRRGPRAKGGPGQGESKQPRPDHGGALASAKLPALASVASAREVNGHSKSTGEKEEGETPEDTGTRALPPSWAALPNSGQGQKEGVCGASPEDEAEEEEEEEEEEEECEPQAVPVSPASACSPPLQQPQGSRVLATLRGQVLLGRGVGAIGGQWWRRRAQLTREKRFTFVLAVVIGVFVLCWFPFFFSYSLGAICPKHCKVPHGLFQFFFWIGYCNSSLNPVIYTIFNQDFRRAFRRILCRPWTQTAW
Method: as §1, §2, §3
The results of the RSAT assay with several exemplary compounds of the invention are disclosed in Table 1 above together with the chemical formulas of these exemplary compounds. EC50 values are nanomolar. NA stands for “not active” at concentrations less than 10 micromolar. IA stands for “intrinsic activity.”

alpha2A receptor = target: T3, alpha2A receptor (Homo sapiens, UniProt P08913); test: Receptor Selection and Amplification Technology (RSAT) assay, alpha2A; conditions: for Alpha 2A EC50: RSAT, NIH-3T3 cells cotransfected with receptor and Gq/i5, not active = not active at concentrations less than 10 micromolar
T3 construct: expressed in transfected cells; host or cells: NIH-3T3
T3 sequence (P08913 1-465): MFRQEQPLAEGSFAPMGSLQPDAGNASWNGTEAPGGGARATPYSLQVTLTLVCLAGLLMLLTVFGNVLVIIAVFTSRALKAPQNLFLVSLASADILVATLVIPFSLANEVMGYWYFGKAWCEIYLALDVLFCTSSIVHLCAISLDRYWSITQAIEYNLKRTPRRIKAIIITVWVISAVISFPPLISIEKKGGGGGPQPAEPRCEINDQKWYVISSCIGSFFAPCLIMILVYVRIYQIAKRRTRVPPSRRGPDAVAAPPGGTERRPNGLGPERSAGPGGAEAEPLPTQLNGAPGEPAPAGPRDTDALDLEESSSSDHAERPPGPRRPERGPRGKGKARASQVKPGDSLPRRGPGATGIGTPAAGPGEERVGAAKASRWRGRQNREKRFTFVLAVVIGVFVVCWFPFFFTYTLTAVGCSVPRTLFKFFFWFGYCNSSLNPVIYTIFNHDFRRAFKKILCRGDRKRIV
Method: as §1, §2, §3, §4

[1] = RSAT, NIH-3T3 cells cotransfected with receptor and Gq/i5, not active = not active at concentrations less than 10 micromolar, read-out: Alpha 2C EC50
[2] = RSAT, NIH-3T3 cells cotransfected with receptor and Gq/i5, not active = not active at concentrations less than 10 micromolar, read-out: Alpha 2B EC50
[3] = RSAT, NIH-3T3 cells cotransfected with receptor and Gq/i5, not active = not active at concentrations less than 10 micromolar

Row | SMILES | EC50 (alpha2C receptor; [1]) [µM] | Alpha 2C IA (intrinsic activity) (alpha2C receptor) | EC50 (alpha2B receptor; [2]) [µM] | Alpha 2B IA (intrinsic activity) (alpha2B receptor) | Alpha 2A EC50 (alpha2A receptor) | Alpha 2C EC50 (alpha2C receptor; [3]) | Alpha 2B EC50 (alpha2B receptor; [3]) | EC50 (alpha2C receptor) [µM] | EC50 (alpha2B receptor) [µM] | EC50 (alpha2A receptor) [µM] | Alpha 2A IA (intrinsic activity) (alpha2A receptor; ratio of maximal effect of the drug to maximal effect of standard full agonist brimonidine (UK14304))
1 | CC1=CC(NC(=O)NCCF)CC1 (centres unmarked) | 0.911 | 0.47 | 1.16 | 0.61 | not active |  |  |  |  |  | 
2 | CC1Cc2ccccc2C1NC(=O)NCCF (centres unmarked) |  |  | 0.0264 | 0.85 | not active | not active |  |  |  |  | 
3 | Cc1ccc2c(c1)C(NC(=O)NCCF)CC2 (centres unmarked) | 0.807 | 0.31 | 0.032 | 0.88 | not active |  |  |  |  |  | 
4 | COc1ccc2c(c1)C(NC(=O)NCCF)CC2 (centres unmarked) | 1.46 | 0.31 | 0.3 | 0.81 | not active |  |  |  |  |  | 
5 | COc1ccc2c(c1)C(NC(=O)NCCF)CCC2 (centres unmarked) |  |  | 0.824 | 0.78 | not active | not active |  |  |  |  | 
6 | O=C(NCCF)NC1CCc2cc(Br)ccc21 (centres unmarked) | 1.26 | 0.31 | 2.62 | 0.31 | not active |  |  |  |  |  | 
7 | O=C(NCCF)NC1CCc2cc(F)ccc21 (centres unmarked) | 0.543 | 0.54 | 0.088 | 0.59 | not active |  |  |  |  |  | 
8 | O=C(NCCF)NC1CCc2ccc(F)cc21 (centres unmarked) | 0.06 | 0.47 | 0.02 | 0.54 | not active |  |  |  |  |  | 
9 | O=C(NCCF)NC1CCc2ccc(Br)cc21 (centres unmarked) | 0.22 | 0.45 | 0.302 | 0.52 | not active |  |  |  |  |  | 
10 | Cc1ccc2c(c1)CCC2NC(=O)NCCF (centres unmarked) |  |  | 0.247 | 0.71 | not active | not active |  |  |  |  | 
11 | Cc1c(Cl)ccc2c1C(NC(=O)NCCF)CC2 (centres unmarked) |  |  | 0.085 | 0.6 | not active | not active |  |  |  |  | 
12 | CCc1cccc2c1CCC2NC(=O)NCCF (centres unmarked) | 0.103 | 0.47 | 0.0106 | 0.99 | not active |  |  |  |  |  | 
13 | O=C(NCCF)NC1CCc2ccc(F)c(F)c21 (centres unmarked) | 0.117 | 0.53 | 0.0187 | 0.97 | not active |  |  |  |  |  | 
14 | Cc1c(Br)ccc2c1C(NC(=O)NCCF)CC2 (centres unmarked) |  |  | 0.238 | 0.37 | not active | not active |  |  |  |  | 
15 | O=C(NCCF)NC1CCCc2occc21 (centres unmarked) | 0.453 | 0.44 | 0.09 | 0.81 | not active |  |  |  |  |  | 
16 | O=C(NCCF)NC1CCCc2sccc21 (centres unmarked) | 0.04 | 0.52 | 0.0096 | 0.86 | not active |  |  |  |  |  | 
17 | O=C(NCCF)NC1CCc2cccnc21 (centres unmarked) |  |  | 3.08 | 0.81 | not active | not active |  |  |  |  | 
18 | CCC1=CCCCC1NC(=O)NCCF (centres unmarked) |  | 0.59 |  | 1.22 |  |  |  | 0.348 | 0.045 | 0.184 | 0.64
19 | O=C(NCCF)NC1C=C(CO)CCC1 (centres unmarked) | 2.6 | 0.4 | 1.26 | 0.58 | not active |  |  |  |  |  | 
20 | CC1=CC(NC(=O)NCCF)CCC1 (centres unmarked) | 0.52 | 0.4 | 0.225 | 0.42 | not active |  |  |  |  |  | 
21 | CCC1=CC(NC(=O)NCCF)CCC1 (centres unmarked) | 0.346 | 0.32 |  |  | not active |  | not active |  |  |  | 

Continued, in another order:

Row | EC50 (alpha2C receptor; [1]) [µM] | Alpha 2C IA (intrinsic activity) (alpha2C receptor) | EC50 (alpha2B receptor; [2]) [µM] | Alpha 2B IA (intrinsic activity) (alpha2B receptor) | Alpha 2A EC50 (alpha2A receptor) | Alpha 2C EC50 (alpha2C receptor; [3]) | Alpha 2B EC50 (alpha2B receptor; [3]) | SMILES | EC50 (alpha2C receptor) [µM] | EC50 (alpha2B receptor) [µM] | EC50 (alpha2A receptor) [µM] | Alpha 2A IA (intrinsic activity) (alpha2A receptor; ratio of maximal effect of the drug to maximal effect of standard full agonist brimonidine (UK14304))
22 | 0.246 | 0.48 | 0.018 | 0.92 | not active |  |  | O=C(NCCF)NC1Cc2ccccc2C1 |  |  |  | 
23 |  |  | 0.226 | 0.63 | not active | not active |  | O=C(NCCF)NC1CCc2ccccc2C1 (centres unmarked) |  |  |  | 
24 |  |  | 0.845 | 0.31 | not active | not active |  | O=C(NCCF)NC1CCc2cc(Cl)ccc21 (centres unmarked) |  |  |  | 
25 | 1.44 | 0.35 |  |  | not active |  | not active | COc1ccc2c(c1)CCC2NC(=O)NCCF (centres unmarked) |  |  |  | 
26 | 0.0175 | 0.47 | 0.0016 | 1.0 | not active |  |  | O=C(NCCF)N[C@H]1CCc2ccccc21 |  |  |  | 
27 | > 2 | 0.38 | 0.38 | 0.76 | not active |  |  | O=C(NCCF)NCC1CCc2ccccc21 (centres unmarked) |  |  |  | 
28 | 0.886 | 0.37 | 0.319 | 0.88 | not active |  |  | CCC1=C(C)C(NC(=O)NCCF)CC1 (centres unmarked) |  |  |  | 
29 | 0.453 | 0.58 | 0.074 | 0.9 | not active |  |  | CC1=CCCCC1NC(=O)NCCF (centres unmarked) |  |  |  | 
30 | 0.513 | 0.52 | 0.0197 | 0.76 | not active |  |  | CC1=C(C)C(NC(=O)NCCF)CCC1 (centres unmarked) |  |  |  | 
31 | 3.62 | 0.32 | 2.58 | 0.81 | not active |  |  | CC1=C(C=O)CCCC1NC(=O)NCCF (centres unmarked) |  |  |  | 
